Data as given in PubChem BioAssay (NCI).
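Assay format: 96-well plates, 48-hour exposure. At the GI50, growth is halved. TGI: concentration producing complete growth inhibition.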

Assays:
Assay in all cases: DTP human tumour cell line panel, 48 h
BT-549 breast = system: BT-549 breast
LOX IMVI melanoma = system: LOX IMVI melanoma
HOP-92 NSCLC = system: HOP-92 NSCLC
OVCAR-8 ovarian = system: OVCAR-8 ovarian
HCT-15 colon = system: HCT-15 colon
MOLT-4 leukemia = system: MOLT-4 leukemia
SF-268 CNS = system: SF-268 CNS
OVCAR-5 ovarian = system: OVCAR-5 ovarian
NCI-H226 lung = system: NCI-H226 lung
SW-620 colon = system: SW-620 colon
MDA-MB-435 = system: MDA-MB-435
K-562 leukemia = system: K-562 leukemia
UACC-257 melanoma = system: UACC-257 melanoma
ACHN renal = system: ACHN renal
SF-539 CNS = system: SF-539 CNS
NCI/ADR-RES ovarian = system: NCI/ADR-RES ovarian
SK-MEL-2 melanoma = system: SK-MEL-2 melanoma
786-0 renal = system: 786-0 renal
HL-60(TB) leukemia = system: HL-60(TB) leukemia
TK-10 renal = system: TK-10 renal
HCT-116 colon = system: HCT-116 colon
CCRF-CEM leukemia = system: CCRF-CEM leukemia
HT29 colon = system: HT29 colon
RXF 393 renal = system: RXF 393 renal
NCI-H23 lung = system: NCI-H23 lung
SK-MEL-28 melanoma = system: SK-MEL-28 melanoma
SR leukemia = system: SR leukemia
HS 578T breast = system: HS 578T breast
SNB-75 CNS = system: SNB-75 CNS
RPMI-8226 leukemia = system: RPMI-8226 leukemia
A498 renal = system: A498 renal
SF-295 CNS = system: SF-295 CNS
IGROV1 ovarian = system: IGROV1 ovarian
EKVX NSCLC = system: EKVX NSCLC
NCI-H460 lung = system: NCI-H460 lung
SN12C renal = system: SN12C renal
MCF7 breast = system: MCF7 breast
MDA-MB-468 breast = system: MDA-MB-468 breast
DU-145 prostate = system: DU-145 prostate
OVCAR-4 ovarian = system: OVCAR-4 ovarian
OVCAR-3 ovarian = system: OVCAR-3 ovarian
U251 CNS = system: U251 CNS
HCC-2998 colon = system: HCC-2998 colon
CAKI-1 renal = system: CAKI-1 renal
NCI-H522 lung = system: NCI-H522 lung
KM12 colon = system: KM12 colon
UACC-62 melanoma = system: UACC-62 melanoma
SNB-19 CNS = system: SNB-19 CNS
T-47D breast = system: T-47D breast
UO-31 renal = system: UO-31 renal
SK-OV-3 ovarian = system: SK-OV-3 ovarian
A549 NSCLC = system: A549 NSCLC
MDA-MB-231 breast = system: MDA-MB-231 breast
M14 melanoma = system: M14 melanoma
SK-MEL-5 melanoma = system: SK-MEL-5 melanoma
HOP-62 NSCLC = system: HOP-62 NSCLC
COLO 205 colon = system: COLO 205 colon
PC-3 prostate = system: PC-3 prostate
MALME-3M melanoma = system: MALME-3M melanoma

CN1CCc2c(sc3ncnc(N/N=C/c4cccc(Cl)c4Cl)c23)C1
GI50 (BT-549 breast): 4.13 µM | TGI (BT-549 breast): > 24 µM | GI50 (LOX IMVI melanoma): 3.52 µM | TGI (LOX IMVI melanoma): 6.83 µM | GI50 (HOP-92 NSCLC): 4.92 µM | TGI (HOP-92 NSCLC): > 24 µM | GI50 (OVCAR-8 ovarian): 5.81 µM | TGI (OVCAR-8 ovarian): 17.8 µM | GI50 (HCT-15 colon): 4.76 µM | TGI (HCT-15 colon): 17.1 µM | GI50 (MOLT-4 leukemia): 7.65 µM | TGI (MOLT-4 leukemia): > 24 µM | GI50 (SF-268 CNS): 10.7 µM | TGI (SF-268 CNS): > 24 µM | GI50 (OVCAR-5 ovarian): 8.14 µM | TGI (OVCAR-5 ovarian): > 24 µM | GI50 (NCI-H226 lung): 11.6 µM | TGI (NCI-H226 lung): > 24 µM | GI50 (SW-620 colon): 7.79 µM | TGI (SW-620 colon): > 24 µM | GI50 (MDA-MB-435): 13.6 µM | TGI (MDA-MB-435): > 24 µM | GI50 (K-562 leukemia): 4.42 µM | TGI (K-562 leukemia): 15.1 µM | GI50 (UACC-257 melanoma): > 24 µM | TGI (UACC-257 melanoma): > 24 µM | GI50 (ACHN renal): 3.68 µM | TGI (ACHN renal): 7.89 µM | GI50 (SF-539 CNS): 3.83 µM | TGI (SF-539 CNS): 7.3 µM | GI50 (NCI/ADR-RES ovarian): 4.76 µM | TGI (NCI/ADR-RES ovarian): 15.3 µM | GI50 (SK-MEL-2 melanoma): > 24 µM | TGI (SK-MEL-2 melanoma): > 24 µM | GI50 (786-0 renal): 4.79 µM | TGI (786-0 renal): 10 µM | GI50 (HL-60(TB) leukemia): 4.01 µM | TGI (HL-60(TB) leukemia): 10 µM | GI50 (TK-10 renal): 5.5 µM | TGI (TK-10 renal): 18.2 µM | GI50 (HCT-116 colon): 4.49 µM | TGI (HCT-116 colon): 11.2 µM | GI50 (CCRF-CEM leukemia): 4.41 µM | TGI (CCRF-CEM leukemia): > 24 µM | GI50 (HT29 colon): 4.16 µM | TGI (HT29 colon): 9.55 µM | GI50 (RXF 393 renal): 3.19 µM | TGI (RXF 393 renal): 12.3 µM | GI50 (NCI-H23 lung): 5.24 µM | TGI (NCI-H23 lung): 15.4 µM | GI50 (SK-MEL-28 melanoma): 13.7 µM | TGI (SK-MEL-28 melanoma): > 24 µM | GI50 (SR leukemia): 3.54 µM | TGI (SR leukemia): > 24 µM | GI50 (HS 578T breast): 6.56 µM | TGI (HS 578T breast): 22.9 µM | GI50 (SNB-75 CNS): 5.12 µM | TGI (SNB-75 CNS): 21.4 µM | GI50 (RPMI-8226 leukemia): 6.69 µM | TGI (RPMI-8226 leukemia): > 24 µM | GI50 (A498 renal): > 24 µM | TGI (A498 renal): > 24 µM | GI50 (SF-295 CNS): 3.82 µM | TGI (SF-295 CNS): 8.23 µM | GI50 (IGROV1 ovarian): 5.68 µM | TGI (IGROV1 ovarian): 15.4 µM | GI50 (EKVX NSCLC): 5.09 µM | TGI (EKVX NSCLC): 17.6 µM | GI50 (NCI-H460 lung): 7.54 µM | TGI (NCI-H460 lung): > 24 µM | GI50 (SN12C renal): 5.58 µM | TGI (SN12C renal): 16.8 µM | GI50 (MCF7 breast): 4.89 µM | TGI (MCF7 breast): 17.6 µM | GI50 (MDA-MB-468 breast): 3.19 µM | TGI (MDA-MB-468 breast): 10.6 µM | GI50 (DU-145 prostate): 8.34 µM | TGI (DU-145 prostate): > 24 µM | GI50 (OVCAR-4 ovarian): 6.54 µM | TGI (OVCAR-4 ovarian): > 24 µM | GI50 (OVCAR-3 ovarian): 4.77 µM | TGI (OVCAR-3 ovarian): 13.8 µM | GI50 (U251 CNS): 4.83 µM | TGI (U251 CNS): 10.8 µM | GI50 (HCC-2998 colon): 4.47 µM | TGI (HCC-2998 colon): 10.7 µM | GI50 (CAKI-1 renal): 4.49 µM | TGI (CAKI-1 renal): 11.4 µM | GI50 (NCI-H522 lung): 9.89 µM | TGI (NCI-H522 lung): > 24 µM | GI50 (KM12 colon): > 24 µM | TGI (KM12 colon): > 24 µM | GI50 (UACC-62 melanoma): > 24 µM | TGI (UACC-62 melanoma): > 24 µM | GI50 (SNB-19 CNS): 5.61 µM | TGI (SNB-19 CNS): 18.2 µM | GI50 (T-47D breast): 5.55 µM | TGI (T-47D breast): 18.3 µM | GI50 (UO-31 renal): 6.39 µM | TGI (UO-31 renal): > 24 µM | GI50 (SK-OV-3 ovarian): > 24 µM | TGI (SK-OV-3 ovarian): > 24 µM | GI50 (A549 NSCLC): 7.79 µM | TGI (A549 NSCLC): > 24 µM | GI50 (MDA-MB-231 breast): 3.88 µM | TGI (MDA-MB-231 breast): 8.01 µM | GI50 (M14 melanoma): 12.8 µM | TGI (M14 melanoma): > 24 µM | GI50 (SK-MEL-5 melanoma): 12.9 µM | TGI (SK-MEL-5 melanoma): > 24 µM | GI50 (HOP-62 NSCLC): 4.45 µM | TGI (HOP-62 NSCLC): 10.7 µM | GI50 (COLO 205 colon): 4.34 µM | TGI (COLO 205 colon): 9.78 µM | GI50 (PC-3 prostate): > 24 µM | TGI (PC-3 prostate): > 24 µM | GI50 (MALME-3M melanoma): 7.15 µM | TGI (MALME-3M melanoma): > 24 µM
